Consider 8 compounds from ChEMBL document CHEMBL3351718 (Bioorg Med Chem Lett, 2014).

In experiment [1] the target is Hepatocyte growth factor receptor (Homo sapiens, UniProt P08581). Briefly: Inhibition of recombinant MET kinase domain (unknown origin).
In experiment [2] the target is Vascular endothelial growth factor receptor 2 (Homo sapiens, UniProt P35968). Briefly: Inhibition of recombinant VEGFR2 kinase domain (unknown origin).
For experiment [3], the target named is Mast/stem cell growth factor receptor Kit (Homo sapiens, UniProt P10721). Kind of experiment: Inhibition of c-Kit (unknown origin).
The target of experiment [4] is Proto-oncogene tyrosine-protein kinase receptor Ret (Homo sapiens, UniProt P07949). Briefly: Inhibition of RET (unknown origin).
The test system of experiment [5] is HUVEC. Briefly: Growth inhibition of HUVEC cells. As to conditions: Homo sapiens.
Experiment [6] is described as follows: Growth inhibition of human MKN45 cells. As to conditions: MKN-45.

pIC50: −log10 of the molar value.

Sequence of Hepatocyte growth factor receptor (P08581 whole entry, the tested form may be a part): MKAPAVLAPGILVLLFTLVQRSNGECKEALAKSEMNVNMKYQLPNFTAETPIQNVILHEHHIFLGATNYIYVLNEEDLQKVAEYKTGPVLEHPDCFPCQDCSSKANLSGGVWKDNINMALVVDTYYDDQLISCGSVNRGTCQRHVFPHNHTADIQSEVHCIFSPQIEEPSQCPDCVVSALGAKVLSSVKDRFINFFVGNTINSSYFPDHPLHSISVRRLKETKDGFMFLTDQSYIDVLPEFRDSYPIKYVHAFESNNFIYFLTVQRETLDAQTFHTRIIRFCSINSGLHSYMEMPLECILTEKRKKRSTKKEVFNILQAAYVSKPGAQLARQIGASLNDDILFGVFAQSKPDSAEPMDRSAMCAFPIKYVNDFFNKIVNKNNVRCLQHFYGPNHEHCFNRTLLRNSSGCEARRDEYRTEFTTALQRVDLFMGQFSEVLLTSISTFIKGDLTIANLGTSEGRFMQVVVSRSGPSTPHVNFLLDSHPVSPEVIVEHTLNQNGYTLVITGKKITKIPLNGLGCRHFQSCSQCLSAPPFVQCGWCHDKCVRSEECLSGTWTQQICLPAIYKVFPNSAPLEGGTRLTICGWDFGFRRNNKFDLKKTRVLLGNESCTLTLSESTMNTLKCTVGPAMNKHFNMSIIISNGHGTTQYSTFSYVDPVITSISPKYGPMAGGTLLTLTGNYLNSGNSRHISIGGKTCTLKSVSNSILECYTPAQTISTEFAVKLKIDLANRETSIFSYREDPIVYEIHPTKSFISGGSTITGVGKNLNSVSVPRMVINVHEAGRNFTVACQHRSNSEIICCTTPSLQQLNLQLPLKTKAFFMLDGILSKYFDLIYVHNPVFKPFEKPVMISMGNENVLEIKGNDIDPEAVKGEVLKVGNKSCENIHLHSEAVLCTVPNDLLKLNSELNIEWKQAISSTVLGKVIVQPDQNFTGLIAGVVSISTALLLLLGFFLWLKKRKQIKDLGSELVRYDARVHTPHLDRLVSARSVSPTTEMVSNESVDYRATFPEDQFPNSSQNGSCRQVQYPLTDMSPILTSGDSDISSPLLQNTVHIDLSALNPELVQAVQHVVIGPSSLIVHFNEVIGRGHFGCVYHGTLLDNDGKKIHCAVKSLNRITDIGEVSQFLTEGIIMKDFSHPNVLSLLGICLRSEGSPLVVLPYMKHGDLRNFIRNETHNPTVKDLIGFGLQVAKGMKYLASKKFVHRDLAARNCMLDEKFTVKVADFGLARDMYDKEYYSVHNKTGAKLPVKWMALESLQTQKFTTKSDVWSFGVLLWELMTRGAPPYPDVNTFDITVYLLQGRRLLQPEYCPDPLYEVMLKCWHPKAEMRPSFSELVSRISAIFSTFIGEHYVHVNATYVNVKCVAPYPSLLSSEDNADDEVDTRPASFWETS
Sequence of Vascular endothelial growth factor receptor 2 (P35968 whole entry, the tested form may be a part): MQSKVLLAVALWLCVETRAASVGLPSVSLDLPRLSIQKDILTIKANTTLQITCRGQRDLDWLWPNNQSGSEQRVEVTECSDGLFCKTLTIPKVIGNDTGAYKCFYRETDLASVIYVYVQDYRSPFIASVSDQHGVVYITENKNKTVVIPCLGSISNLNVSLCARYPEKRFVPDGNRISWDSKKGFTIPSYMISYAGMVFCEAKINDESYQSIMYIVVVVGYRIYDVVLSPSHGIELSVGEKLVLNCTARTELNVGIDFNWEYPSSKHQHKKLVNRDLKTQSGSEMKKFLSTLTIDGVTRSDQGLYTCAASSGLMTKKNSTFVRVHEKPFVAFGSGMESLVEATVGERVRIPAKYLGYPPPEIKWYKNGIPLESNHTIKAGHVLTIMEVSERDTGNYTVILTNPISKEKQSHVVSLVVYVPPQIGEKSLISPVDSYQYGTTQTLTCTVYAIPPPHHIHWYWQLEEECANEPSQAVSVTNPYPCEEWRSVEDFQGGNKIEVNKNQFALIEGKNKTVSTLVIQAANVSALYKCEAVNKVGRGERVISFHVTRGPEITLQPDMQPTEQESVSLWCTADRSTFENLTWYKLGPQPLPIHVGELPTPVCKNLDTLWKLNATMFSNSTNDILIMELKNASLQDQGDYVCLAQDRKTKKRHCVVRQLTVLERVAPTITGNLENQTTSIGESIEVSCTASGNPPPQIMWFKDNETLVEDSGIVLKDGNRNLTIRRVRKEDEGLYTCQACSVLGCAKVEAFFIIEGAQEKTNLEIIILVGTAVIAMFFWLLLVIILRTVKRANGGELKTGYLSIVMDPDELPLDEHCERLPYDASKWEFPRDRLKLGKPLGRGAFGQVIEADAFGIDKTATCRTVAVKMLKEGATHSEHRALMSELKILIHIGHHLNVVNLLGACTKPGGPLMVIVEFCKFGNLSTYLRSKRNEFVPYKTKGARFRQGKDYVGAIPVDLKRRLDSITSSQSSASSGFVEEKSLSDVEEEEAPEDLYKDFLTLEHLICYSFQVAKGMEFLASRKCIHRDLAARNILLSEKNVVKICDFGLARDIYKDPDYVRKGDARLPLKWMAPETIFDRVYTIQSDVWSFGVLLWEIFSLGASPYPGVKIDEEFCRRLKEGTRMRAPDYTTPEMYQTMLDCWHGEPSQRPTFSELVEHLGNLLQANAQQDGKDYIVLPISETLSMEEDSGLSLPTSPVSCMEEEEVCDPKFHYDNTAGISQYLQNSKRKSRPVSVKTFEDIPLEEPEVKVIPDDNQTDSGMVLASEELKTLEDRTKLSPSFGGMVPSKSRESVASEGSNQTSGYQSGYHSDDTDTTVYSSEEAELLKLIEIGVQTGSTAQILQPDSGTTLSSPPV
Sequence of Proto-oncogene tyrosine-protein kinase receptor Ret (P07949 whole entry): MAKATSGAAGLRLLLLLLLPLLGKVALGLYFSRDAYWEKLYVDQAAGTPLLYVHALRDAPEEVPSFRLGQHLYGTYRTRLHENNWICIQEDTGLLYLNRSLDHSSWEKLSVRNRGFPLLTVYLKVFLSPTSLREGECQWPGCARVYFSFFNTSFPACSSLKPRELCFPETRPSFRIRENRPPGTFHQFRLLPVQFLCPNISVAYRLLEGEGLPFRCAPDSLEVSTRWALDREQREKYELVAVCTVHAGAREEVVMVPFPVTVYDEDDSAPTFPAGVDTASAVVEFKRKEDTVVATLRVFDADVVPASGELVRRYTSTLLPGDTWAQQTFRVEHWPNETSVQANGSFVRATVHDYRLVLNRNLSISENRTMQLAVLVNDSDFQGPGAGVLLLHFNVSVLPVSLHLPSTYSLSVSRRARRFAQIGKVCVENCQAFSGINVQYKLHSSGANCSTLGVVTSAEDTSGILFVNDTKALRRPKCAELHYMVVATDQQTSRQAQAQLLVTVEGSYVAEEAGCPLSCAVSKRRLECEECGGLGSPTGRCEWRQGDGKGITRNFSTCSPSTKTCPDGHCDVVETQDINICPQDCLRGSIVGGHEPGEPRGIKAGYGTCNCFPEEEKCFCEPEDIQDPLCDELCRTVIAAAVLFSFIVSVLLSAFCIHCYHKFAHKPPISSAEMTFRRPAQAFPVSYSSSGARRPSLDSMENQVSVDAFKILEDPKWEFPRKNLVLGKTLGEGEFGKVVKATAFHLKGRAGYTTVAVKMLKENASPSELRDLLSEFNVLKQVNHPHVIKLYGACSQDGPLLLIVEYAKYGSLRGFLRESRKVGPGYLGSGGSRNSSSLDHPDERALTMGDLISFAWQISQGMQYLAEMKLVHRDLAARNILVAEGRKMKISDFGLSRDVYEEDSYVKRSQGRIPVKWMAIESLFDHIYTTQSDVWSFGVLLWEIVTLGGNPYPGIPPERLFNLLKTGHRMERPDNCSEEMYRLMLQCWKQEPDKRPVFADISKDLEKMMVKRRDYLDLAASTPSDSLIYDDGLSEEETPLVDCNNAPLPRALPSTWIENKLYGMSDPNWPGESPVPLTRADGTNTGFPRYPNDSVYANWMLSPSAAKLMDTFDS
Sequence of Mast/stem cell growth factor receptor Kit (P10721 whole entry): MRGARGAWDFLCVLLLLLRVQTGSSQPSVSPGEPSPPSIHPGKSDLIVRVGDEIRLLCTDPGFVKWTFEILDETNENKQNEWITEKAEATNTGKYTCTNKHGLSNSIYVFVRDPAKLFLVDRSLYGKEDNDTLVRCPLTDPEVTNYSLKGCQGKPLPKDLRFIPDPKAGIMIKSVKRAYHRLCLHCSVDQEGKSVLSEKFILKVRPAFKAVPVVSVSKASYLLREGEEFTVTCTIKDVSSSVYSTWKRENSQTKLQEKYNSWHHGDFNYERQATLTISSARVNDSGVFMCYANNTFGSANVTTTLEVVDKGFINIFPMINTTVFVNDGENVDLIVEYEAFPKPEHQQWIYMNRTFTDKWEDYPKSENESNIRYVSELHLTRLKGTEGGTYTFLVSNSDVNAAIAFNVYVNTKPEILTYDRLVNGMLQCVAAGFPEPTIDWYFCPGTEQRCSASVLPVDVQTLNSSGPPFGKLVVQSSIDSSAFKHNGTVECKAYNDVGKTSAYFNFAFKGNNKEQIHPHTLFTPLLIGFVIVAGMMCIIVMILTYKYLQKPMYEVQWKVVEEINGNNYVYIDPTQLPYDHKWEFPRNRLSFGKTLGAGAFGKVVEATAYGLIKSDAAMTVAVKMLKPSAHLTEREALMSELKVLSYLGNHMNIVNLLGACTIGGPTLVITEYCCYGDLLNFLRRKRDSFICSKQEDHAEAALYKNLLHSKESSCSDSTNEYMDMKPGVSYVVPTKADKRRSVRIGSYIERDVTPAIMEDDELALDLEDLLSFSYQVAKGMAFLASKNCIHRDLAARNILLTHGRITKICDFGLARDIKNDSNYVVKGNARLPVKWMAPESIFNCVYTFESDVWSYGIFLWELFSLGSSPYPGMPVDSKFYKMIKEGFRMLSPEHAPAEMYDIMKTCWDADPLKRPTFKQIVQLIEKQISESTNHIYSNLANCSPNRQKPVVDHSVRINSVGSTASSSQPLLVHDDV

What is called pIC50 is the negative decadic logarithm of the IC50, by convention in mol/L. Take `Nc1nccc(Oc2ccc(-n3cccc(C(=O)Nc4ccc(F)cc4)c3=O)cc2F)c1Cl`: in experiment [1], the pIC50 was under 4.60.
In the case of `Nc1nccc(Oc2ccc(-n3cccc(C(=O)NCc4ccc(F)cc4)c3=O)cc2F)c1Cl`, the pIC50 in experiment [1] was under 4.60.
In the case of `Nc1nccc(Oc2ccc(-n3ccc(C(=O)Nc4ccc(F)cc4)cc3=O)cc2F)c1Cl`, the negative-log IC50 (pIC50) in experiment [1] was under 4.60.
`Nc1nccc(Oc2ccc(-n3ccc(C(=O)NCc4ccc(F)cc4)cc3=O)cc2F)c1Cl`: the negative-log IC50 (pIC50) in experiment [1] was under 4.60.
As for `Nc1nccc(Oc2ccc(-n3cc(C(=O)Nc4ccc(F)cc4)ccc3=O)cc2F)c1Cl`, the pIC50 in experiment [1] was under 4.60.
With `Nc1nccc(Oc2ccc(-n3cc(C(=O)NCc4ccc(F)cc4)ccc3=O)cc2F)c1Cl`, the negative logarithm of the IC50 (pIC50) in experiment [2] is under 4.60.
`COc1cc(=O)n(-c2ccc(Oc3ccnc(N)c3Cl)c(F)c2)cc1C(=O)NCc1ccc(F)cc1`: the pIC50 in experiment [2] was under 4.60; in experiment [3], under 4.60; in experiment [4], under 4.60; in experiment [5] it was 5.62; in experiment [6] it was under 4.60.
As for `COc1cc(=O)n(-c2ccc(Oc3ccnc(N)c3I)c(F)c2)cc1C(=O)NCc1ccc(F)cc1`, the negative logarithm of the IC50 (pIC50) is under 4.60 in experiment [2]; under 4.60 in experiment [3]; under 4.60 in experiment [4]; 5.62 in experiment [5]; under 4.60 in experiment [6].
